For test [1], the target named is T1, Muscarinic acetylcholine receptor M2 (Rattus norvegicus, UniProt P10980).
T1 sequence (P10980 whole entry): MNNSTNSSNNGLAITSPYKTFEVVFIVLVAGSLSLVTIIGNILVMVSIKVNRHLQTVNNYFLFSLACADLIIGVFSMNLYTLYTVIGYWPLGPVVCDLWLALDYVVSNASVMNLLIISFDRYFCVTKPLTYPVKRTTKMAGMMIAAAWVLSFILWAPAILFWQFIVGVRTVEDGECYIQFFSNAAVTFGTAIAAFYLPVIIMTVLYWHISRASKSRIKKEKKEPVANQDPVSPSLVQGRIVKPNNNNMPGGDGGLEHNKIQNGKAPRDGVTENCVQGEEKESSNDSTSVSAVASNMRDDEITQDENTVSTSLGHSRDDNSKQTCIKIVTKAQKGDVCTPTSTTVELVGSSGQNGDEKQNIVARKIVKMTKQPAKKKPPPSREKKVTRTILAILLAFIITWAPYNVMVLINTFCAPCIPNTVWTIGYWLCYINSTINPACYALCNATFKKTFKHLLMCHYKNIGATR

Test [2] deals with T2, Muscarinic acetylcholine receptor M2 (Homo sapiens, UniProt P08172).
T2 sequence (P08172 whole entry): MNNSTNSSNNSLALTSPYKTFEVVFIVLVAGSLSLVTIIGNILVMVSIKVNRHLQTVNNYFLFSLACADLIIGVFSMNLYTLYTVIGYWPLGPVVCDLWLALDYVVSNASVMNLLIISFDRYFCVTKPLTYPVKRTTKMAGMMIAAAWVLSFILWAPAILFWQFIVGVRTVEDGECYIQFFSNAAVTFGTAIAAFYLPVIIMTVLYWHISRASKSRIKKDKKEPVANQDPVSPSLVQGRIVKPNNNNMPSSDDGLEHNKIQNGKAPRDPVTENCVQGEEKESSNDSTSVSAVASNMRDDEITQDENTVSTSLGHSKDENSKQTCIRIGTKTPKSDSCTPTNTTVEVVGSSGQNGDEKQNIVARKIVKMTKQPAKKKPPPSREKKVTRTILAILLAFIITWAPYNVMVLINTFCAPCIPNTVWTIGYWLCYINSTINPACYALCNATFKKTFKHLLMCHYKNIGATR

This is an account of results in BindingDB's records for PubMed 9454790 (University of Arizona, 1998).

Take `C[C@H]1OC(=O)C2C[C@H]3CCCC[C@@H]3[C@@H](/C=C/[C@@H]3CCC[C@H](C)N3C)C21` (some centres not stated) [HIMBACINE]: the results for the Ki in test [1] and in test [2] were 14 nM and 12 nM, respectively.
`O=C1CCCN1CC#CCN1CCCC1` [1-[4-(2-oxo-pyrrolidin-1-yl)-but-2-ynyl]-pyrrolidinium]: the Ki in test [1] amounted to 290 nM; in test [2] it was 235 nM.
The like results for `CCN(CC)CC1CCCCN1CC(=O)N1c2ccccc2C(=O)Nc2cccnc21` (configuration not stated) [(AF-DX 116) 11-[2-(2-Diethylaminomethyl-piperidin-1-yl)-acetyl]-5,11-dihydro-benzo[e]pyrido[3,2-b][1,4]diazepin-6-one] were, in that order, 50 nM and 67 nM.
In turn, `C=C[C@@H]1CN2CC[C@H]1C[C@@H]2[C@H](O)c1ccnc2ccc(OC)cc12` [Quinidine] had a Ki in test [2] of 7.5 nM. This counts as single-digit nanomolar.
Regarding `C[N+](C)(C)CCCCCCCCCC[N+](C)(C)C` [Decamethonium Iodide], the Ki in test [2] came out at 25 nM. This Ki lies about 3.3-fold higher than the previous one.
On the same count and under the same terms, then `C[N+]1(C)CCO[C@@](O)(c2ccc(-c3ccc([C@@]4(O)C[N+](C)(C)CCO4)cc3)cc2)C1` [CAS_312-45-8], with 11 nM.
Regarding `CC[N+](CC)(CC)CCOc1cccc(OCC[N+](CC)(CC)CC)c1OCC[N+](CC)(CC)CC`, the affinity in test [1] corresponds to a Ki of 2610 nM.
In turn, `CN(C)CCCN1c2ccccc2CCc2ccccc21` registered a Ki in test [2] of 0.13 nM.
In turn, `COc1cc2c3cc1Oc1cc(ccc1O)C[C@H]1c4c(cc(OC)c(O)c4Oc4ccc(cc4)C[C@@H]3N(C)CC2)CC[N+]1(C)C` [CAS_57-94-3] returned a Ki in test [2] of 97 nM.

Broadly, the Ki is the dissociation constant of the complex between target and ligand, obtained from inhibition or displacement.
